From paper PMC4300089, “Structure-Guided Design of Selective Epac1 and Epac2 Agonists” (PLoS Biology, 2015)

Columns and labels:
Epac2^Δ280 = biological target: T1, Epac2^Δ280 (Mus musculus, UniProt Q9EQZ6); assay: Epac activation assay (Rap1B•mGDP fluorescence nucleotide exchange), Epac2^Δ280; type: biochemical; conditions: Epac2^Δ280; for Rel. kmax: maximal activity relative to cAMP
T1 construct: made in house
T1 sequence (Q9EQZ6 281-993 isoform Q9EQZ6-3): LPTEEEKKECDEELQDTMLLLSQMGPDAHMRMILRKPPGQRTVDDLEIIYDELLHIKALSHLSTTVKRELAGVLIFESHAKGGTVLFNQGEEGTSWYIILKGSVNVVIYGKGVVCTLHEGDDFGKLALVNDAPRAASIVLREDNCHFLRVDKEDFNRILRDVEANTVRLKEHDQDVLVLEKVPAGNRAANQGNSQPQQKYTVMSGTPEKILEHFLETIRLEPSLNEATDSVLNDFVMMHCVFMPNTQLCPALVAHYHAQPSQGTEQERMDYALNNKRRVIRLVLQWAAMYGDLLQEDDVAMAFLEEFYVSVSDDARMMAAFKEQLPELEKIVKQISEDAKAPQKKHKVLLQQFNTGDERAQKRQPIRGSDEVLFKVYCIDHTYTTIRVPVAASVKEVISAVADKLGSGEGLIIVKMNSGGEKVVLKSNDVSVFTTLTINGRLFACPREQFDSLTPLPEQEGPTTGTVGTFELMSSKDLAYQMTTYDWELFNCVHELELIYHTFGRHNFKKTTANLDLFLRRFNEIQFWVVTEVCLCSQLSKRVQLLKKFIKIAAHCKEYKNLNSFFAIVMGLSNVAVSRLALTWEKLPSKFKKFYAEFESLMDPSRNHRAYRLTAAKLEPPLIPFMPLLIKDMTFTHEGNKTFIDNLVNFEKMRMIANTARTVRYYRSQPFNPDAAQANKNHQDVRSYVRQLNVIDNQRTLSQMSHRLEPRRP
Description: Murine Epac2 was used as all previous structural studies were performed with it.
The activity of Epac was determined by a fluorescence assay. […] The fluorescence intensity of Rap1B•mGDP is approximately twice that of free mGDP, and thus, nucleotide exchange can be observed as a decay in fluorescence upon the addition of excess unlabeled GDP.

Epac1 = biological target: T2, Epac1 (Homo sapiens, UniProt O95398); assay: Epac activation assay, Epac1; type: biochemical; conditions: Epac1; for Rel. kmax: maximal activity relative to cAMP
T2 construct: made in house
T2 sequence (O95398 150-881 isoform O95398-3): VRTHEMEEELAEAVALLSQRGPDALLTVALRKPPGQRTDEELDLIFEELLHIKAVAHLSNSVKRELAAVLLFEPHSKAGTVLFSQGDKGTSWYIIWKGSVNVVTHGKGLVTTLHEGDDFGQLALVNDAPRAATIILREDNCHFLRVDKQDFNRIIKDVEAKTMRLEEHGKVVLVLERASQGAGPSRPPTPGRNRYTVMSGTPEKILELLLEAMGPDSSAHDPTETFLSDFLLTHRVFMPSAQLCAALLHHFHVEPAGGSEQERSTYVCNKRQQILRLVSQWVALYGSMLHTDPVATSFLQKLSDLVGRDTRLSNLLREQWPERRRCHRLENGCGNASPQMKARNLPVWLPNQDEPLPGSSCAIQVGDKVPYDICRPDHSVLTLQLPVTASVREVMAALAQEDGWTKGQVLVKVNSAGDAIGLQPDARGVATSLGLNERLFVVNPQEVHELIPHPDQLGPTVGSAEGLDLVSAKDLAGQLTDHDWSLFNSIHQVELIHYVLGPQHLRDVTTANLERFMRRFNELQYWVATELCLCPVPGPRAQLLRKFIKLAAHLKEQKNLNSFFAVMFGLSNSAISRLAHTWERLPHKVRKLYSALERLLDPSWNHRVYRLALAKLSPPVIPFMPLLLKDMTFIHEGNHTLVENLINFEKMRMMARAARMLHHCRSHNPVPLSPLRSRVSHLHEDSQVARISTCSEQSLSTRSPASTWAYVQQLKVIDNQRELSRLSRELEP

Compound	AC50 (Epac2^Δ280) [µM]	Rel. kmax (Epac2^Δ280)	AC50 (Epac1) [µM]	Rel. kmax (Epac1)
Nc1ncnc2c1nc(Sc1ccc(Cl)cc1)n2[C@@H]1O[C@@H]2COP([O-])(=S)O[C@H]2[C@H]1O.[Na+] (stereo partly drawn) [S-210, Sp-8-pCPT-cAMPS]	0.13	0.7	2.2	0.5
Nc1ncnc2c1ncn2[C@@H]1O[C@@H]2COP(=O)(O)O[C@H]2[C@H]1OCc1ccccc1 [Z-008, 2′-O-Bn-cAMP]	35	0.4	75	1.5
Nc1ncnc2c1nc(NCc1ccccc1)n2[C@@H]1O[C@@H]2COP(=O)(O)O[C@H]2[C@H]1O [L-014, 8-BnA-cAMP]	1.9	1.5	30	0.2
Nc1ncnc2c1ncn2[C@@H]1O[C@@H]2COP(=O)(O)O[C@H]2[C@H]1F [Z-002, 2′-F-cAMP]	25	1.0	1500	–
Nc1ncnc2c1nc(SCc1ccccc1Cl)n2[C@@H]1O[C@@H]2CO[P@](O)(=S)O[C@H]2[C@H]1O [S-270, Sp-8-oCBnT-cAMPS]	0.27	3.1	16	0.2
O[C@@H]1[C@@H]2OP(O)(=S)OC[C@H]2O[C@H]1n1cnc2cc(Cl)c(Cl)cc21 (stereo partly drawn) [S-400, Sp-5,6-DCl-cBIMPS]	0.9	0.8	14	1.0
CNc1nc2c(N)ncnc2n1[C@@H]1O[C@@H]2COP(=O)(O)O[C@H]2[C@H]1Cl [D-001, 8-MeA-2′-Cl-cAMP]	45	2.2	330	~0.6?
Nc1ncnc2c1nc(Br)n2[C@@H]1O[C@@H]2COP(=O)(O)O[C@H]2[C@H]1Cl [D-003, 8-Br-2′-Cl-cAMP]	11	0.9	260	~0.5?
Nc1ncnc2c1nc(O)n2[C@@H]1O[C@@H]2CO[P@](O)(=S)O[C@H]2[C@H]1O [S-130, Sp-8-OH-cAMPS]	1.3	1.4	80	0.6
Nc1ncnc2c1nc([Se]Cc1ccccc1)n2[C@@H]1O[C@@H]2COP(=O)(O)O[C@H]2[C@H]1OCc1ccccc1 [D-012, 8-BnSe-2′-O-Bn-cAMP]	4.6	1.0	38	0.9
CCCCO[C@@H]1[C@@H]2OP(=O)(O)OC[C@H]2O[C@H]1n1cnc2c(N)ncnc21 [Z-006, 2′-O-Bu-cAMP]	120	1.0	–	–
CSc1nc2c(N)ncnc2n1[C@@H]1O[C@@H]2CO[P@](O)(=S)O[C@H]2[C@H]1O [S-160, Sp-8-MeT-cAMPS]	0.3	7.4	–	–
Nc1ncnc2c1nc(Br)n2[C@H]1C[C@@H]2O[P@@](O)(=S)OC[C@H]2O1 [S-011, Sp-8-Br-2′dcAMPS]	9	0.8	–	–
Nc1ncnc2c1ncn2[C@@H]1O[C@@H]2COP(O)(=S)O[C@H]2[C@H]1O (stereo partly drawn) [R-000, Rp-cAMPS]	10	0.2	–	–
CO[C@@H]1[C@@H]2OP(=O)(O)OC[C@H]2O[C@H]1n1c(O)nc2c(N)ncnc21 [D-010, 8-OH-2′-O-Me-cAMP]	6.8	0.5	–	–
NCCNc1nc2c(N)ncnc2n1[C@@H]1O[C@@H]2COP(=O)(O)O[C@H]2[C@H]1O [L-006, 8-AEA-cAMP]	1.6	0.5	–	–
CO[C@@H]1[C@@H]2O[P@@](O)(=S)OC[C@H]2O[C@H]1n1c(Sc2ccc(O)cc2)nc2c(N)ncnc21 [S-202, Sp-8-pOHPT-2′-O-Me-cAMPS]	1.6	1.4	–	–
Nc1ncnc2c1nc(N1CCCC1)n2[C@@H]1O[C@@H]2COP(=O)(O)O[C@H]2[C@H]1O [L-017, 8-Pyr-cAMP]	3.9	4.4	–	–
CC(C)Nc1nc2c(N)ncnc2n1[C@@H]1O[C@@H]2CO[P@](O)(=S)O[C@H]2[C@H]1O [S-050, Sp-8-iPrA-cAMPS]	9	1.4	–	–
